In PubChem BioAssay (NCI):
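Five compound concentrations were applied to cells in 96-well plates for 48 hours; endpoints were derived by simple linear interpolation of the resulting dose-response curve. TGI: total growth inhibition.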

Columns and labels:
Test in all cases: growth of human tumour cells (NCI), 48 h
OVCAR-3 ovarian = system: OVCAR-3 ovarian
K-562 leukemia = system: K-562 leukemia
NCI-H226 lung = system: NCI-H226 lung
A498 renal = system: A498 renal
U251 CNS = system: U251 CNS
SR leukemia = system: SR leukemia
TK-10 renal = system: TK-10 renal
MCF7 breast = system: MCF7 breast
SK-MEL-28 melanoma = system: SK-MEL-28 melanoma
HCT-116 colon = system: HCT-116 colon
NCI-H23 lung = system: NCI-H23 lung
NCI-H460 lung = system: NCI-H460 lung
OVCAR-4 ovarian = system: OVCAR-4 ovarian
MOLT-4 leukemia = system: MOLT-4 leukemia
T-47D breast = system: T-47D breast
MDA-MB-435 = system: MDA-MB-435
SF-295 CNS = system: SF-295 CNS
HCT-15 colon = system: HCT-15 colon
HCC-2998 colon = system: HCC-2998 colon
UO-31 renal = system: UO-31 renal
UACC-257 melanoma = system: UACC-257 melanoma
MDA-MB-231 breast = system: MDA-MB-231 breast
SNB-19 CNS = system: SNB-19 CNS
M14 melanoma = system: M14 melanoma
SN12C renal = system: SN12C renal
SK-MEL-5 melanoma = system: SK-MEL-5 melanoma
DU-145 prostate = system: DU-145 prostate
HS 578T breast = system: HS 578T breast
NCI/ADR-RES ovarian = system: NCI/ADR-RES ovarian
SNB-75 CNS = system: SNB-75 CNS
HT29 colon = system: HT29 colon
KM12 colon = system: KM12 colon
RXF 393 renal = system: RXF 393 renal
MDA-N = system: MDA-N
SW-620 colon = system: SW-620 colon
SF-268 CNS = system: SF-268 CNS
COLO 205 colon = system: COLO 205 colon
OVCAR-8 ovarian = system: OVCAR-8 ovarian
PC-3 prostate = system: PC-3 prostate
CCRF-CEM leukemia = system: CCRF-CEM leukemia
HOP-92 NSCLC = system: HOP-92 NSCLC
NCI-H522 lung = system: NCI-H522 lung
ACHN renal = system: ACHN renal
SK-OV-3 ovarian = system: SK-OV-3 ovarian
OVCAR-5 ovarian = system: OVCAR-5 ovarian
SF-539 CNS = system: SF-539 CNS
SK-MEL-2 melanoma = system: SK-MEL-2 melanoma
EKVX NSCLC = system: EKVX NSCLC
CAKI-1 renal = system: CAKI-1 renal
IGROV1 ovarian = system: IGROV1 ovarian
LOX IMVI melanoma = system: LOX IMVI melanoma
786-0 renal = system: 786-0 renal
HOP-62 NSCLC = system: HOP-62 NSCLC
HL-60(TB) leukemia = system: HL-60(TB) leukemia
UACC-62 melanoma = system: UACC-62 melanoma
A549 NSCLC = system: A549 NSCLC
RPMI-8226 leukemia = system: RPMI-8226 leukemia

Q: What does the source list for Cc1ccc(S(=O)(=O)N2CCCN(S(=O)(=O)c3ccc(C)cc3)CC2)cc1?
A: TGI (OVCAR-3 ovarian): > 100 µM; TGI (K-562 leukemia): > 100 µM; TGI (NCI-H226 lung): > 100 µM; TGI (A498 renal): 69.2 µM; TGI (U251 CNS): > 100 µM; TGI (SR leukemia): > 100 µM; TGI (TK-10 renal): > 100 µM; TGI (MCF7 breast): > 100 µM; TGI (SK-MEL-28 melanoma): > 100 µM; TGI (HCT-116 colon): > 100 µM; TGI (NCI-H23 lung): > 100 µM; TGI (NCI-H460 lung): > 100 µM; TGI (OVCAR-4 ovarian): > 100 µM; TGI (MOLT-4 leukemia): > 100 µM; TGI (T-47D breast): > 100 µM; TGI (MDA-MB-435): > 100 µM; TGI (SF-295 CNS): > 100 µM; TGI (HCT-15 colon): > 100 µM; TGI (HCC-2998 colon): > 100 µM; TGI (UO-31 renal): > 100 µM; TGI (UACC-257 melanoma): > 100 µM; TGI (MDA-MB-231 breast): > 100 µM; TGI (SNB-19 CNS): > 100 µM; TGI (M14 melanoma): > 100 µM; TGI (SN12C renal): > 100 µM; TGI (SK-MEL-5 melanoma): > 100 µM; TGI (DU-145 prostate): > 100 µM; TGI (HS 578T breast): > 100 µM; TGI (NCI/ADR-RES ovarian): > 100 µM; TGI (SNB-75 CNS): > 100 µM; TGI (HT29 colon): > 100 µM; TGI (KM12 colon): > 100 µM; TGI (RXF 393 renal): > 100 µM; TGI (MDA-N): > 100 µM; TGI (SW-620 colon): > 100 µM; TGI (SF-268 CNS): > 100 µM; TGI (COLO 205 colon): > 100 µM; TGI (OVCAR-8 ovarian): > 100 µM; TGI (PC-3 prostate): > 100 µM; TGI (CCRF-CEM leukemia): > 100 µM; TGI (HOP-92 NSCLC): > 100 µM; TGI (NCI-H522 lung): > 100 µM; TGI (ACHN renal): > 100 µM

Q: With CN1CCN(Cn2nc(COc3ccc(Cl)cc3)n(/N=C/c3ccc(-c4ccc(Cl)cc4Cl)o3)c2=S)CC1 as the compound, how does the TGI (OVCAR-3 ovarian) read?
A: 30.6 µM

Q: And the TGI (SK-OV-3 ovarian)?
A: 30.2 µM

Q: What about the TGI (K-562 leukemia) of the same compound?
A: > 100 µM

Q: And the TGI (NCI-H226 lung)?
A: 49.2 µM

Q: What about the TGI (A498 renal) of the same compound?
A: 32.6 µM

Q: What about the TGI (OVCAR-5 ovarian) of the same compound?
A: 33.2 µM

Q: And the TGI (U251 CNS)?
A: 23.1 µM

Q: And the TGI (SR leukemia)?
A: 14.8 µM

Q: What about the TGI (TK-10 renal) of the same compound?
A: 30.6 µM

Q: What about the TGI (MCF7 breast) of the same compound?
A: 36.7 µM

Q: What about the TGI (SK-MEL-28 melanoma) of the same compound?
A: 28.2 µM

Q: And the TGI (HCT-116 colon)?
A: 26.2 µM

Q: What about the TGI (NCI-H460 lung) of the same compound?
A: 34.3 µM

Q: What about the TGI (SF-539 CNS) of the same compound?
A: 72.3 µM

Q: What about the TGI (OVCAR-4 ovarian) of the same compound?
A: 10.5 µM

Q: What about the TGI (MOLT-4 leukemia) of the same compound?
A: 41.1 µM

Q: And the TGI (T-47D breast)?
A: 46.3 µM

Q: And the TGI (MDA-MB-435)?
A: 8.02 µM

Q: What about the TGI (SF-295 CNS) of the same compound?
A: 27.8 µM

Q: And the TGI (SK-MEL-2 melanoma)?
A: 41 µM

Q: And the TGI (EKVX NSCLC)?
A: 37.7 µM

Q: What about the TGI (HCT-15 colon) of the same compound?
A: 36.9 µM

Q: And the TGI (CAKI-1 renal)?
A: 28.3 µM

Q: And the TGI (HCC-2998 colon)?
A: 7.72 µM

Q: And the TGI (UO-31 renal)?
A: 32.6 µM

Q: And the TGI (UACC-257 melanoma)?
A: 36.7 µM

Q: What about the TGI (MDA-MB-231 breast) of the same compound?
A: 22 µM

Q: What about the TGI (IGROV1 ovarian) of the same compound?
A: 24 µM

Q: And the TGI (SK-MEL-5 melanoma)?
A: 35.5 µM

Q: What about the TGI (DU-145 prostate) of the same compound?
A: 25 µM

Q: And the TGI (HS 578T breast)?
A: 23.8 µM

Q: And the TGI (NCI/ADR-RES ovarian)?
A: 38.9 µM

Q: What about the TGI (HT29 colon) of the same compound?
A: 15.4 µM

Q: What about the TGI (KM12 colon) of the same compound?
A: 11 µM

Q: And the TGI (RXF 393 renal)?
A: 7.13 µM

Q: And the TGI (MDA-N)?
A: 14.1 µM

Q: And the TGI (SW-620 colon)?
A: 19 µM

Q: What about the TGI (SF-268 CNS) of the same compound?
A: 21.3 µM

Q: What about the TGI (LOX IMVI melanoma) of the same compound?
A: 24.1 µM

Q: What about the TGI (786-0 renal) of the same compound?
A: 17 µM

Q: What about the TGI (OVCAR-8 ovarian) of the same compound?
A: 18.7 µM

Q: And the TGI (HOP-62 NSCLC)?
A: 16.8 µM

Q: And the TGI (PC-3 prostate)?
A: 23.5 µM

Q: What about the TGI (CCRF-CEM leukemia) of the same compound?
A: 17.3 µM

Q: And the TGI (HOP-92 NSCLC)?
A: 22.7 µM

Q: What about the TGI (NCI-H522 lung) of the same compound?
A: 10.2 µM

Q: And the TGI (ACHN renal)?
A: 33.9 µM

Q: Which results are given for CN1N=C(c2ccncc2)OC1c1ccc(Cl)cc1Cl (centres undefined)?
A: TGI (OVCAR-3 ovarian): > 100 µM; TGI (SK-OV-3 ovarian): > 100 µM; TGI (K-562 leukemia): > 100 µM; TGI (NCI-H226 lung): 84.2 µM; TGI (A498 renal): > 100 µM; TGI (OVCAR-5 ovarian): > 100 µM; TGI (U251 CNS): > 100 µM; TGI (HL-60(TB) leukemia): > 100 µM; TGI (TK-10 renal): > 100 µM; TGI (MCF7 breast): > 100 µM; TGI (SK-MEL-28 melanoma): > 100 µM; TGI (HCT-116 colon): > 100 µM; TGI (NCI-H23 lung): > 100 µM; TGI (NCI-H460 lung): > 100 µM; TGI (SF-539 CNS): > 100 µM; TGI (OVCAR-4 ovarian): > 100 µM; TGI (MOLT-4 leukemia): > 100 µM; TGI (T-47D breast): > 100 µM; TGI (MDA-MB-435): > 100 µM; TGI (SF-295 CNS): > 100 µM; TGI (SK-MEL-2 melanoma): > 100 µM; TGI (EKVX NSCLC): > 100 µM; TGI (HCT-15 colon): > 100 µM; TGI (UACC-62 melanoma): 76.5 µM; TGI (HCC-2998 colon): > 100 µM; TGI (UO-31 renal): > 100 µM; TGI (UACC-257 melanoma): > 100 µM; TGI (MDA-MB-231 breast): > 100 µM; TGI (SNB-19 CNS): > 100 µM; TGI (M14 melanoma): > 100 µM; TGI (IGROV1 ovarian): > 100 µM; TGI (SN12C renal): > 100 µM; TGI (SK-MEL-5 melanoma): > 100 µM; TGI (A549 NSCLC): > 100 µM; TGI (DU-145 prostate): > 100 µM; TGI (HS 578T breast): > 100 µM; TGI (NCI/ADR-RES ovarian): > 100 µM; TGI (RPMI-8226 leukemia): > 100 µM; TGI (SNB-75 CNS): 55.6 µM; TGI (HT29 colon): > 100 µM; TGI (KM12 colon): > 100 µM; TGI (RXF 393 renal): > 100 µM; TGI (MDA-N): > 100 µM; TGI (SW-620 colon): > 100 µM; TGI (SF-268 CNS): > 100 µM; TGI (COLO 205 colon): > 100 µM; TGI (LOX IMVI melanoma): > 100 µM; TGI (786-0 renal): > 100 µM; TGI (OVCAR-8 ovarian): > 100 µM; TGI (HOP-62 NSCLC): > 100 µM; TGI (PC-3 prostate): > 100 µM; TGI (CCRF-CEM leukemia): > 100 µM; TGI (NCI-H522 lung): > 100 µM; TGI (ACHN renal): > 100 µM
